Source: patent US11142588B2, “Polypeptides which bind C-X-C chemokine receptor type 4 (CXCR4) and methods of treating or reducing the risk of fibrosis and cancer” (AdAlta Limited, priority 2015, dated 2021)

Legend:
[1] = tested on: human fibrocytes; test: Binding to human fibrocytes (confocal microscopy); assay type: cell-based; conditions: CD45 positive cells of PBMCs
Method: PBMCs were smeared on a microscope slide and fixed with acetone at 4° C. for 10 minutes. Following three times washing and rehydration with PBS the slides were incubated with mouse antiFLAG 1:100 dilution over night at 4° C. After washing the slides were incubated with Goat anti-mouse Alex Fluor 568 (to detect i-body by binding anti FLAG) at room temperature for 1 hour. The slides were then washed and incubated with Mouse anti-CD-45 FITC labeled antibody over night at 4° C. After further washing the slides were and mounted with ProLong Gold antifade mountant containing DAPI. Images were captured by using Nikon A1 confocal microscope.

[2] = tested on: normal and IPF lung fibroblasts; test: Wound healing invasion assay of lung fibroblasts; assay type: cell-based, human; conditions: 130 μg/ml
Method in brief: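 Normal and slow- or rapid-progressing IPF lung fibroblasts were plated overnight on basement membrane extract (50 μg/ml coating), then overlaid with BME polymerised at 37° C for 15 min. Wound invasion was imaged every 2 h for about 50 h and quantified by image analysis.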

[3] = target: CXCR4 (Homo sapiens, UniProt P61073); test: β-arrestin BRET assay, antagonist mode with 100 nM SDF-1; assay type: cell-based; parameters: expressed in transfected cells; host or cells: HEK293FT; conditions: read-out: IC50 (nM) in β-Arrestin BRET assay (Antagonist mode in the presence of 100 nM SDF-1)
Chain of CXCR4 (P61073 whole entry): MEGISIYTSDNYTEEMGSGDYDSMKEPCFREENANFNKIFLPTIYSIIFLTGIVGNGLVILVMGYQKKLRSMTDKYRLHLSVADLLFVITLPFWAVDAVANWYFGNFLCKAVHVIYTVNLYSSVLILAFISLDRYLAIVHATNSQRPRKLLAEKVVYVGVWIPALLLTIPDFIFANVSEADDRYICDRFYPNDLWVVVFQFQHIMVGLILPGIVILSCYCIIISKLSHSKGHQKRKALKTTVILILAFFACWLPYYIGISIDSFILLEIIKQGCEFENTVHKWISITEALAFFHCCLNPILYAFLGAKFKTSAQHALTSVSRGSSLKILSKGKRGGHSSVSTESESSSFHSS
Method in brief: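 HEK293FT cells transiently co-expressed CXCR4/Rluc8 and β-arrestin2/Venus and were read at 37 °C with coelenterazine h or EnduRen substrate. i-Bodies were tested at ten concentrations with 100 nM SDF-1. BRET signal is the 520-540/400-475 nm emission ratio minus the vehicle ratio; mean±S.E.M. of four experiments in duplicate.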

Molecule | binding to human fibrocytes [1] | invasion of normal lung fibroblasts [2] | migration of IPF lung fibroblasts ([2]; slow and rapid IPF progressors) | IC50 [3] [nM]
AM3-114: affinity matured CXCR4 i-body, SEQ ID NO: 40 | capable of binding to human fibrocytes | neither i-body had any effect | specifically inhibited migration | 
AM3-523: affinity matured CXCR4 i-body, SEQ ID NO: 56 (protein, protein sequence encoding AM3-523) LQVDIVPSQGEISVGESKFFLCQVAGSGSHMRISWFSPNGEKLTPNQQRISVVWNDDSSSTLTIYNANIDDAGIYKCVVWVGGYRHRALVLGEATVNVKIFQ |  |  |  | 12700
